Experimental findings from ChEMBL document CHEMBL1201862, “PubChem BioAssay data set” (2004) are described below.

Among the test systems are OVCAR-4; SN12C; HCT-116; Malme-3M; LOX IMVI; UACC-62; NCI-H460; SW-620; MDA-MB-231; TK-10; 786-0; EKVX; SF-268; SK-OV-3; RXF 393; K562; DU-145; MDA-N; U-251; MCF7.
Common to all, as to test: NCI anticancer screen, dose series, 48 h

Molecules are shown by their SMILES.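 48-hour exposure; five concentrations; linearly interpolated endpoints. The concentration for 50% growth inhibition is given as GI50.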 Active and inactive are the calls of the source. Cut-off read from the data, not from the text of the source: active = GI50 up to about 1.1 µM and inactive = higher.

As for `O=C1CCCCC(=O)Nc2ccccc2N1`, the GI50 in the experiment with OVCAR-4, in the experiment with SN12C, with HCT-116, with Malme-3M, in the experiment on LOX IMVI and in the experiment on UACC-62 was > 100 µM (inactive) throughout. Moreover, the GI50 with NCI-H460, in the experiment with SW-620, in the experiment on MDA-MB-231, in the experiment with TK-10, with 786-0 and in the experiment with EKVX was > 100 µM (inactive) in each case. The GI50 with SF-268, in the experiment on SK-OV-3, in the experiment on RXF 393, in the experiment on K562, in the experiment on DU-145 and in the experiment with MDA-N was > 100 µM (inactive) each time. Besides, in the experiment with U-251, the GI50 was > 100 µM (inactive).
With `O=C(O)CO[C@@]12C#C/C=C\C#C[C@@H]3N(C(=O)Oc4ccccc4)c4ccccc4[C@]14O[C@@]34CCC2`, the GI50 is 56.1 µM (inactive) in the experiment on OVCAR-4; 30.5 µM (inactive) in the experiment with SN12C; 14.6 µM (inactive) in the experiment with MCF7; 33.4 µM (inactive) with HCT-116; 40.5 µM (inactive) in the experiment with LOX IMVI; 11.5 µM (inactive) in the experiment with UACC-62. In addition, the GI50 was 36.4 µM (inactive) in the experiment on NCI-H460; 47.6 µM (inactive) with SW-620; 12.9 µM (inactive) in the experiment with MDA-MB-231; > 100 µM (inactive) in the experiment on TK-10; 26.9 µM (inactive) in the experiment with 786-0; > 100 µM (inactive) in the experiment on EKVX. Also, the GI50 in the experiment on SF-268 was 14.3 µM (inactive); with SK-OV-3 it was 6.75 µM (inactive); with K562 it was 23.7 µM (inactive); in the experiment on DU-145, 43.3 µM (inactive); with MDA-N, 14.9 µM (inactive); in the experiment with U-251, 19.1 µM (inactive).
For the molecule `O=C1CC(C(O)CO)CC(=O)N1` (stereo unspecified), the GI50 with SN12C, in the experiment with MCF7, with HCT-116, in the experiment with Malme-3M, in the experiment with LOX IMVI and in the experiment with NCI-H460 was > 100 µM (inactive) each time. Also, the GI50 in the experiment with SW-620, with MDA-MB-231, in the experiment with TK-10, in the experiment with 786-0, with SF-268 and in the experiment with K562 was > 100 µM (inactive) each time. Further, the GI50 in the experiment on DU-145, with MDA-N and with U-251 was > 100 µM (inactive) throughout.
Take `CC[C@](C)(O)C(=O)O[C@H]1C(=O)O[C@@H]2C[C@H]3C(C)=CC(=O)[C@@H](O)[C@]3(C)[C@H]3[C@@]4(O)OC[C@]32[C@@H]1[C@@H](C)[C@H]4O` [GLAUCARUBINONE]: the GI50 was 0.321 µM (active) in the experiment with OVCAR-4; 0.158 µM (active) in the experiment with SN12C; 0.05 µM (active) with HCT-116; 0.0354 µM (active) with LOX IMVI; 0.051 µM (active) in the experiment on UACC-62; 0.0912 µM (active) in the experiment on NCI-H460. Moreover, the GI50 was 0.075 µM (active) in the experiment on SW-620; 0.946 µM (active) with MDA-MB-231; 0.39 µM (active) in the experiment on TK-10; 0.146 µM (active) in the experiment on 786-0; 0.0545 µM (active) in the experiment with EKVX; 0.0661 µM (active) with SF-268. For the same molecule, the GI50 was 1.02 µM (active) in the experiment with SK-OV-3; 0.05 µM (active) with RXF 393; 0.05 µM (active) with K562; 0.824 µM (active) with DU-145; 0.425 µM (active) in the experiment on MDA-N; 0.05 µM (active) with U-251.
As to `CCN(CC)C(=O)c1cc([N+](=O)[O-])c(=O)n2c1[nH]c1ccccc12`, the GI50 in the experiment on OVCAR-4, in the experiment with SN12C, with HCT-116, in the experiment with Malme-3M, with LOX IMVI and with UACC-62 was > 100 µM (inactive) each time. Also, the GI50 with NCI-H460, in the experiment on SW-620, with MDA-MB-231, in the experiment with TK-10, in the experiment with 786-0 and with EKVX was > 100 µM (inactive) throughout. Besides, the GI50 with SF-268, with SK-OV-3, in the experiment on RXF 393, in the experiment on K562, with DU-145 and in the experiment on MDA-N was > 100 µM (inactive) in each case.
For `COc1ccc(C2N(c3ccc(F)cc3)C(=O)N3C(c4ccc(OC)cc4)N(c4ccc(F)cc4)C(=O)N23)cc1` (stereo unspecified), the GI50 in the experiment with OVCAR-4, with SN12C, in the experiment on HCT-116, in the experiment on Malme-3M, in the experiment with LOX IMVI and with UACC-62 was > 100 µM (inactive) in each case. The GI50 in the experiment with NCI-H460, with SW-620, with MDA-MB-231, in the experiment on TK-10, in the experiment on 786-0 and in the experiment with EKVX was > 100 µM (inactive) in each case. For the same molecule, the GI50 in the experiment on SF-268, in the experiment with RXF 393, with DU-145, in the experiment with MDA-N and in the experiment with U-251 was > 100 µM (inactive) each time.
With `CCOC(=O)/C(=C\c1cn(C(C)=O)c2ccccc12)P(C)(=O)OCC` (stereo unspecified), the GI50 in the experiment on SN12C is 26.8 µM (inactive); in the experiment with MCF7 it was 32.8 µM (inactive); in the experiment on HCT-116, 26.2 µM (inactive); in the experiment with Malme-3M it was 17.3 µM (inactive); in the experiment with UACC-62, 60 µM (inactive); in the experiment on SW-620 it was 39.2 µM (inactive). Besides, the GI50 is 27.4 µM (inactive) with MDA-MB-231; 39.5 µM (inactive) in the experiment on 786-0; 33.3 µM (inactive) with EKVX; 21.1 µM (inactive) in the experiment with SF-268; 27.1 µM (inactive) with SK-OV-3; > 100 µM (inactive) with K562. Also, the GI50 in the experiment with DU-145 is 25.9 µM (inactive); in the experiment with MDA-N, 24.8 µM (inactive); in the experiment on U-251, 40.1 µM (inactive).
With `CCN(CC)CCC(=O)NC1c2ccc(Cl)cc2Oc2c(C)cccc21` (stereo unspecified), the GI50 with OVCAR-4 is 14.3 µM (inactive); with SN12C, 17.3 µM (inactive); in the experiment with MCF7, 15.7 µM (inactive); in the experiment on HCT-116 it was 16.3 µM (inactive); in the experiment with LOX IMVI, 14.5 µM (inactive); in the experiment with UACC-62, 16.9 µM (inactive). Further, the GI50 is 16.6 µM (inactive) in the experiment with NCI-H460; 16.7 µM (inactive) in the experiment on SW-620; 20.8 µM (inactive) in the experiment on MDA-MB-231; 14.6 µM (inactive) in the experiment with TK-10; 12.6 µM (inactive) with 786-0; 13.4 µM (inactive) with EKVX. The GI50 with SF-268 is 8.53 µM (inactive); in the experiment on SK-OV-3, 17.6 µM (inactive); in the experiment with K562, 18.5 µM (inactive); with DU-145, 16 µM (inactive); with MDA-N, 16.6 µM (inactive); with U-251 it was > 10 µM (inactive).
As to `Cc1ccc(/N=N/c2c(O)c(C(=O)O)cc3ccccc23)c(S(=O)(=O)O)c1`, the GI50 in the experiment on OVCAR-4, in the experiment with SN12C, with HCT-116, in the experiment on Malme-3M, with LOX IMVI and in the experiment with UACC-62 was > 100 µM (inactive) each time. Moreover, the GI50 in the experiment on SW-620, in the experiment on MDA-MB-231, in the experiment with TK-10, with 786-0, in the experiment with EKVX and in the experiment on SF-268 was > 100 µM (inactive) throughout. The GI50 in the experiment on SK-OV-3, in the experiment on RXF 393, with K562, in the experiment with DU-145, with MDA-N and with U-251 was > 100 µM (inactive) throughout.
Regarding `O=C1NN=C(c2c[nH]c3ccccc23)CC1NCc1ccccc1` (stereo unspecified), the GI50 with SN12C, with HCT-116, in the experiment with Malme-3M, with LOX IMVI, in the experiment on UACC-62 and in the experiment with NCI-H460 was > 100 µM (inactive) in each case. Moreover, the GI50 with SW-620, in the experiment on MDA-MB-231, in the experiment on TK-10, in the experiment on 786-0, in the experiment with SF-268 and in the experiment on SK-OV-3 was > 100 µM (inactive) throughout. Further, the GI50 in the experiment with RXF 393, in the experiment on K562, in the experiment on DU-145, in the experiment with MDA-N and in the experiment with U-251 was > 100 µM (inactive) each time.
With `Cc1ccc(Cc2n[nH]c(=O)[nH]2)cc1`, the GI50 in the experiment with OVCAR-4 is > 100 µM (inactive); in the experiment with SN12C it was > 100 µM (inactive); in the experiment with MCF7, 28.6 µM (inactive); with HCT-116 it was > 100 µM (inactive); in the experiment with Malme-3M, > 100 µM (inactive); in the experiment with LOX IMVI, > 100 µM (inactive). Also, the GI50 in the experiment with UACC-62, in the experiment on NCI-H460, in the experiment with SW-620, in the experiment with MDA-MB-231, in the experiment on TK-10 and in the experiment on 786-0 was > 100 µM (inactive) throughout. Further, the GI50 with EKVX, in the experiment with SK-OV-3, in the experiment with K562, in the experiment on DU-145, in the experiment on MDA-N and in the experiment with U-251 was > 100 µM (inactive) each time.
